Entries after “also recorded” stand apart in the source; their conditions may differ. Structures can show the parent of a compound that is named as a salt. Where two headings read alike, the source gives them in different places.
Legend:
Format in all cases: cell-based
Xenopus laevis VDR = molecular target: T1, Xenopus laevis VDR (Xenopus laevis, UniProt O13124); experiment: luciferase reporter transactivation assay in HepG2-NTCP cells, GAL4/xlVDR LBD chimera with tk-UAS-Luc; conditions: for Effect on Xenopus laevis VDR: screening for activators, at least three concentrations of each drug
T1 sequence (O13124 90-422): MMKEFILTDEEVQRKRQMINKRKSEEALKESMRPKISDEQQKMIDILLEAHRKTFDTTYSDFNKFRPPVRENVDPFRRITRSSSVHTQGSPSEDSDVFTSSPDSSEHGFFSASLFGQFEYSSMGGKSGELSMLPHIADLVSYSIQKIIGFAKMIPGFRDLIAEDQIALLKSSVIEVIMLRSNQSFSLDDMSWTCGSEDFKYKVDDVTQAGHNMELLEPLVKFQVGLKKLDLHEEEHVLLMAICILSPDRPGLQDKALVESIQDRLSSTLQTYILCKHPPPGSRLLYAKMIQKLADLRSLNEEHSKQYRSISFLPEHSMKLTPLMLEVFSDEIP

Zebrafish VDR = molecular target: T2, Zebrafish VDR (Danio rerio, UniProt Q9PTN2); experiment: luciferase reporter transactivation assay in HepG2-NTCP cells, GAL4/zfVDR LBD chimera with tk-UAS-Luc; conditions: for Effect on zebrafish VDR: screening for activators, at least three concentrations of each drug
T2 sequence (Q9PTN2 121-453): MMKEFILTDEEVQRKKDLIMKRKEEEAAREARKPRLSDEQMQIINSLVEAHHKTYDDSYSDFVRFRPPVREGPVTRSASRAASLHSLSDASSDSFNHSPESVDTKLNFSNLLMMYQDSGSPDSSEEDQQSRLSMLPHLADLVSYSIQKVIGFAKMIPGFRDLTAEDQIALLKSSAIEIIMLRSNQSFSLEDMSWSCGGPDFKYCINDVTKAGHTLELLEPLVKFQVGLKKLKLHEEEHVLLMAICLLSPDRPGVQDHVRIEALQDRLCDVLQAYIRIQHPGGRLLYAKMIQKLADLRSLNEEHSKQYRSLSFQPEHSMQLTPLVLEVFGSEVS

Sea lamprey VDR = molecular target: T3, Sea lamprey VDR (Petromyzon marinus, UniProt Q7ZZY9)
T3 sequence (Q7ZZY9 92-406): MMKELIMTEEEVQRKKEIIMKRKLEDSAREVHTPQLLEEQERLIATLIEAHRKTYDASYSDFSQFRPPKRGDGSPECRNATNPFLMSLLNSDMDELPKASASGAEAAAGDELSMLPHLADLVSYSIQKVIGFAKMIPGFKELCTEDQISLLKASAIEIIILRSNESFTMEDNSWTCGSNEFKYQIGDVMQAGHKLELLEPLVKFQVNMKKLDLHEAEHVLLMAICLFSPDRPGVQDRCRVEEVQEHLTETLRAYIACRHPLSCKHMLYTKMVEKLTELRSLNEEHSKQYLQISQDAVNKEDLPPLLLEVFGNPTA

[1] = screening for activators, at least three concentrations of each drug
[2] = HepG2-NTCP cells, luciferase reporter, unit not given, also cells saying No effect

Row | SMILES | Effect on Xenopus laevis VDR (Xenopus laevis VDR) | Effect on zebrafish VDR (Zebrafish VDR) | Effect on sea lamprey VDR (Sea lamprey VDR; [1]) | Xenopus VDR EC50 ± SD (Xenopus laevis VDR; [2]) | Zebrafish VDR EC50 ± SD (Zebrafish VDR; [2]) | Sea lamprey VDR EC50 ± SD (Sea lamprey VDR; [2]) | Effect on sea lamprey VDR (Sea lamprey VDR)
1 | C[C@]12CC[C@@H]3c4ccc(O[C@@H]5O[C@H](C(=O)O)[C@@H](O)[C@H](O)[C@H]5O)cc4CC[C@H]3[C@@H]1CC[C@@H]2O [Estradiol 3-glucuronide] | No effect | No effect | No effect |  |  |  | 
2 | C[C@]12CC[C@@H]3c4ccc(OS(=O)(=O)O)cc4CC[C@H]3[C@@H]1CC[C@@H]2O [Estradiol 3-sulfate] | No effect | No effect | No effect |  |  |  | 
3 | C[C@]12CC[C@@H]3c4ccc(O)cc4CC[C@H]3[C@@H]1C[C@@H](O)[C@@H]2O [Estriol] | No effect | No effect | No effect |  |  |  | 
4 | C[C@]12CC[C@@H]3c4ccc(OS(=O)(=O)O)cc4CC[C@H]3[C@@H]1CCC2=O [Estrone 3-sulfate] | No effect | No effect | No effect |  |  |  | 
5 | C#C[C@]1(O)CC[C@H]2[C@@H]3CCc4cc(O)ccc4[C@H]3CC[C@@]21C [Ethinyl estradiol] | No effect | No effect | No effect |  |  |  | 
6 | C[C@]12CC[C@@H](O)C[C@H]1CC[C@@H]1[C@@H]2CC[C@]2(C)C(=O)CC[C@@H]12 [Etiocholanolone] | No effect | No effect | No effect |  |  |  | 
7 | CC(C)=CCC/C(C)=C/CC/C(C)=C/CO [Farnesol] | No effect | No effect | No effect |  |  |  | 
8 | CC(C)=CCC/C(C)=C/CC/C(C)=C/CSCC(=O)O [Farnesylthioacetic acid] | No effect | No effect | No effect |  |  |  | 
9 | CC(C(=O)O)c1ccc(-c2ccccc2)c(F)c1 (stereo not drawn) [Flurbiprofen] | No effect | No effect | No effect |  |  |  | 
10 | O=C(O)Cc1cccc(OCCCN(Cc2cccc(C(F)(F)F)c2Cl)CC(c2ccccc2)c2ccccc2)c1 [GW3965] | None of these three VDRs were activated; also recorded: No effect | None of these three VDRs were activated; also recorded: No effect | None of these three VDRs were activated; also recorded: No effect |  |  |  | 
11 | CC(C)c1onc(-c2c(Cl)cccc2Cl)c1COc1ccc(/C=C/c2cccc(C(=O)O)c2)c(Cl)c1 [GW4064] | None of these three VDRs were activated | None of these three VDRs were activated | None of these three VDRs were activated |  |  |  | 
12 | CC(C)(Sc1ccc(CCN(CCCCC2CCCCC2)C(=O)NC2CCCCC2)cc1)C(=O)O [GW 7647] | No effect | No effect | No effect |  |  |  | 
13 | O=C(Nc1ccccc1)c1cc([N+](=O)[O-])ccc1Cl [GW 9662] | No effect | No effect | No effect |  |  |  | 
14 | Cc1ccc(C)c(OCCCC(C)(C)C(=O)O)c1 [Gemfibrozil] | No effect | No effect | No effect |  |  |  | 
15 | CC(C)=CCC/C(C)=C/CC/C(C)=C/CC/C(C)=C/CO [Geranygeraniol] | No effect | No effect | No effect |  |  |  | 
16 | CC(CCC(=O)NCC(=O)O)C1CCC2C3C(O)CC4CC(O)CCC4(C)C3CCC12C (stereo not drawn) [Glycochenodeoxycholic acid] | No effect | No effect | No effect |  |  |  | 
17 | C[C@H](CCC(=O)NCC(=O)O)[C@H]1CC[C@H]2[C@@H]3[C@H](O)C[C@@H]4C[C@H](O)CC[C@]4(C)[C@H]3C[C@H](O)[C@]12C.O [Glycocholic acid hydrate] | No effect | No effect | No effect |  |  |  | 

Row | SMILES | Effect on Xenopus laevis VDR (Xenopus laevis VDR) | Effect on zebrafish VDR (Zebrafish VDR) | Effect on sea lamprey VDR (Sea lamprey VDR; [1]) | Xenopus VDR EC50 ± SD (Xenopus laevis VDR; [2]) | Zebrafish VDR EC50 ± SD (Zebrafish VDR; [2]) | Sea lamprey VDR EC50 ± SD (Sea lamprey VDR; [2]) | Effect on sea lamprey VDR (Sea lamprey VDR)
18 | C[C@H](CCC(=O)NCC(=O)O)[C@H]1CC[C@H]2[C@@H]3CC[C@@H]4C[C@H](O)CC[C@]4(C)[C@H]3C[C@H](O)[C@]12C.O [Glycodeoxycholic acid monohydrate] | No effect | No effect | No effect |  |  |  | 
19 | CC(CCC(=O)NCC(=O)O)C1CCC2C3CCC4CC(O)CCC4(C)C3CC(O)C12C (stereo not drawn) [Glycodeoxycholic acid] | No effect | No effect | No effect |  |  |  | 
20 | C[C@H](CCC(=O)NCC(=O)O)[C@H]1CC[C@H]2[C@@H]3CC[C@@H]4C[C@H](OS(=O)(=O)O)CC[C@]4(C)[C@H]3CC[C@]12C [Glycolithocholic acid 3-sulfate] | No effect | No effect | No effect |  |  |  | 
21 | CC(=O)N1CCN(c2ccc(OCC3COC(Cn4ccnc4)(c4ccc(Cl)cc4Cl)O3)cc2)CC1 (stereo not drawn) [Ketoconazole] | No effect | No effect | No effect |  |  |  | 
22 | CCCc1c(OCCCCc2nnn[nH]2)ccc(C(C)=O)c1O [LY 171883] | No effect | No effect | No effect |  |  |  | 
23 | C=CC[C@@H]1[C@H](O)CC[C@@]2(C)[C@H]1CC[C@@H]1[C@@H]2CC[C@]2(C)[C@@H]([C@H](C)CCCC(C)C)CC[C@@H]12 [LY 295427] | No effect | No effect | No effect |  |  |  | 
24 | CC(C)=CCC[C@@H](C)[C@H]1CC[C@@]2(C)C3=C(CC[C@]12C)[C@@]1(C)CC[C@H](O)C(C)(C)[C@@H]1CC3 [Lanosterol] | No effect | No effect | No effect |  |  |  | 
25 | CC(C)CCC[C@@H](C)[C@H]1CC[C@H]2C3=CC[C@H]4C[C@@H](O)CC[C@]4(C)[C@H]3CC[C@]12C [Lathosterol] | No effect | No effect | No effect |  |  |  | 
26 | C#C[C@]1(O)CC[C@H]2[C@@H]3CCC4=CC(=O)CC[C@@H]4[C@H]3CC[C@@]21CC [Levonorgestrol] | No effect | No effect | No effect |  |  |  | 
27 | C[C@H](CCC(=O)O)[C@H]1CC[C@H]2[C@@H]3CC[C@@H]4C[C@H](O)CC[C@]4(C)[C@H]3CC[C@]12C [Lithocholic acid] |  |  |  | No effect | No effect | No effect | 
28 | COc1c(C)c2c(c(O)c1C/C=C(\C)CCC(=O)O)C(=O)OC2 [Mycophenolic acid] | No effect | No effect | No effect |  |  |  | 
29 | CCCCCCCC/C=C\CCCCCCCC(=O)NCCO [N-Oleoylethanolamide] | No effect | No effect | No effect |  |  |  | 
30 | C#C[C@]1(O)CC[C@H]2[C@@H]3CCC4=CC(=O)CC[C@@H]4[C@H]3CC[C@@]21C [Norethindrone] | No effect | No effect |  |  |  |  | No effect
31 | CC(=O)O[C@H]1C(=O)[C@@]2(C)[C@H]([C@H](OC(=O)c3ccccc3)[C@]3(O)C[C@H](OC(=O)[C@H](O)[C@@H](NC(=O)c4ccccc4)c4ccccc4)C(C)=C1C3(C)C)[C@]1(OC(C)=O)CO[C@@H]1C[C@@H]2O [Paclitaxel] | No effect | No effect | No effect |  |  |  | 
32 | CC(C)(O)[C@H]1O[C@H]2CC[C@@]3(C)[C@@](O)(CC[C@H]4Cc5c([nH]c6ccccc56)[C@@]43C)C2=CC1=O [Paxilline] | No effect | No effect | No effect |  |  |  | 
33 | CCc1ccc(CCOc2ccc(CC3SC(=O)NC3=O)cc2)nc1 (stereo not drawn) [Pioglitazone HCl] | No effect | No effect | No effect |  |  |  | 

Reference: PMC2263054, “Functional evolution of the vitamin D and pregnane X receptors” (BMC Evolutionary Biology, 2007)
